The record followed here is ChEMBL document CHEMBL3508693 (2016).

Each structure is given as a SMILES string.

In series [1] the target is T1, CYP1A2 (Homo sapiens, UniProt P05177).
T1 sequence (P05177 whole entry): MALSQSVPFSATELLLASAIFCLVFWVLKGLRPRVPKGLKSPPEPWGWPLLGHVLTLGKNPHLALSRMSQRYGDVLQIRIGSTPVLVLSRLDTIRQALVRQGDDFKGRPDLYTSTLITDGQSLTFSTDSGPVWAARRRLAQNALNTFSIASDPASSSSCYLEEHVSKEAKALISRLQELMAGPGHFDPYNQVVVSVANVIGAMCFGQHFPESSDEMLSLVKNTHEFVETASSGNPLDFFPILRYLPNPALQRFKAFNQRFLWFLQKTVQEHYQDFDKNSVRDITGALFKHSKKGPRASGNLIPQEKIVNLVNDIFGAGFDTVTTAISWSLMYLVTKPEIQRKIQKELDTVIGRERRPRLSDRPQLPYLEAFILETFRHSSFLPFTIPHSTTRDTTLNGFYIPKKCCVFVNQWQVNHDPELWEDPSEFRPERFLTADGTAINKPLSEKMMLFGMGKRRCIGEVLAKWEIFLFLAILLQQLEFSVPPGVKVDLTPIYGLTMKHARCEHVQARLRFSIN
Description: Inhibitory activity of 200 uM SPP100 on 548 Pmoles of cDNA-derived CYP1A2 enzyme in microsome prepared from human lymphoblastoid cell line. The format is ADME, microsomes. On the set-up: conc 200 uM, interact cpd conc 50 uM. To be noted: probe phenacetin.

Series [2] has as its target T1, CYP1A2. Put plainly: Inhibitory activity of 200 uM SPP100 on 578 Pmoles of cDNA-derived CYP1A2 enzyme in microsome prepared from human lymphoblastoid cell line. To be noted: probe phenacetin. On the set-up: conc 200 uM, interact cpd conc 50 uM. The format is ADME, microsomes.
Series [3] has as its target T2, CYP2A6 (Homo sapiens, UniProt P11509).
T2 sequence (P11509 whole entry): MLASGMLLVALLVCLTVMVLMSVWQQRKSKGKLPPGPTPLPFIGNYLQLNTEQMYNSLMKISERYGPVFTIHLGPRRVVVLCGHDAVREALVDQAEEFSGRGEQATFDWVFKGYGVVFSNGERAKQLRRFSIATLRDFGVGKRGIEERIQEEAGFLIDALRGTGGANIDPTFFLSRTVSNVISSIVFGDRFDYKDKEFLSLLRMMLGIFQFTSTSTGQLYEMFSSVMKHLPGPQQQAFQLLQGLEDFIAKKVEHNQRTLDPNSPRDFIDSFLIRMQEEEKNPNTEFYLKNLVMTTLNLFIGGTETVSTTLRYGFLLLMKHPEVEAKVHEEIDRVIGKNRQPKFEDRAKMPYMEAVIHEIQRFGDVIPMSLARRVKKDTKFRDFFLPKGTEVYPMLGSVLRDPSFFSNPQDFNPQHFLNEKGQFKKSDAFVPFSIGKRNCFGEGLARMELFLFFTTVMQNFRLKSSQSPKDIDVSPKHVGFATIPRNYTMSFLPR
Description: Inhibitory activity of 200 uM SPP100 on 34 Pmoles of cDNA-derived CYP2A6 enzyme in microsome prepared from human lymphoblastoid cell line. To be noted: probe coumarine. The format is ADME, microsomes. On the set-up: conc 200 uM, interact cpd conc 3 uM.

Series [4] addresses CYP2C19 (Homo sapiens, UniProt P33261). Description: Inhibitory activity of 200 uM SPP100 on 1375 Pmoles of cDNA-derived CYP2C19 enzyme in microsome prepared from human lymphoblastoid cell line. The format is ADME, microsomes. On the set-up: conc 200 uM, interact cpd conc 50 uM. The note with it: probe (S)-mephenytoin (50 uM).
Series [5] can be described thus: Excretion (0-96h) of 14C-radioactivity in urine following single oral dose of 300 mg [14C]SPP100 studied in healthy men. The series is classed as ADME, organism-based. To be noted: human, in vivo, at 300 mg.
The nature of series [6]: Excretion (0-168h) of 14C-radioactivity in faeces following single oral dose of 300 mg [14C]SPP100 studied in healthy men. The series is classed as ADME, organism-based, Feces. The note with it: human, in vivo, at 300 mg.
The nature of series [7]: Excretion (0-168h) of radioactivity in urine following oral administration of [14C] aliskiren hemifumarate at 3 mg.Kg-1 level in marmoset. The series is classed as ADME, organism-based, Callithrix jacchus. To be noted: in vivo.
The nature of series [8]: AUC of [14C] aliskiren hemifumarate following single intravenous dose of [14C] aliskiren hemifumarate at 10 mg.Kg-1 level in mouse. The series is classed as ADME, organism-based, TgRasH2, Plasma. The note with it: in vivo.
A short description of series [9]: Excretion of radioactivity (48-72h) in faeces following single oral dose of 500 mg.Kg-1 [14C] aliskiren hemifumarate in mouse. The format is ADME, organism-based, TgRasH2, Feces. The note with it: in vivo.
The nature of series [10]: Mean excretion of radioactivity (0-24h) in urine and faeces following single intravenous dose of 10 mg.Kg-1 [14C] aliskiren hemifumarate in rat. The format is ADME, organism-based, Albino HAN:WIST, Urine/Feces. The note with it: in vivo.
A short description of series [11]: Excretion of radioactivity (24-48h) in urine following single oral dose of 100 mg.Kg-1 [14C] aliskiren hemifumarate in rat. The format is ADME, organism-based, Albino HAN:WIST. The note with it: in vivo.
Series [12] concerns the target Cytochrome P450 2D6 (Homo sapiens, UniProt P10635). Description: Metabolic clearance (ul.min.nmol-1 CYP) of aliskiren hemifumarate for CYP2D6 was determined in human liver microsome incubated with [14C]SPP100 hemifumarate. To be noted: microsomes. The series is classed as ADME. Background: Microsomes from liver hold many membrane-bound enzymes, among them those of drug oxidation.

Series [13] is described as follows: Concentration of radioactivity in the colon wall following repeated oral administration of [14C] aliskiren hemifumarate at 100 mg.Kg-1 level studied at 2h after 7th dose in rat. The format is ADME, organism-based, Albino HAN:WIST. The note with it: in vivo.
In series [14] the target is hERG (KCNH2) (Homo sapiens, UniProt Q12809). Description: Effects of 10 uM aliskiren hemifumarate on current through cloned hERG channel expressed in human embryonic kidney cell. The series is classed as cell-based. To be noted: HEK293 cells that express cloned hERG channel, read-out: Inhibitory activity. Further details: conc 10 uM, dose level Low. A general note: Block of hERG is tested as a sign of cardiac risk.
hERG (KCNH2), sequence (Q12809 whole entry): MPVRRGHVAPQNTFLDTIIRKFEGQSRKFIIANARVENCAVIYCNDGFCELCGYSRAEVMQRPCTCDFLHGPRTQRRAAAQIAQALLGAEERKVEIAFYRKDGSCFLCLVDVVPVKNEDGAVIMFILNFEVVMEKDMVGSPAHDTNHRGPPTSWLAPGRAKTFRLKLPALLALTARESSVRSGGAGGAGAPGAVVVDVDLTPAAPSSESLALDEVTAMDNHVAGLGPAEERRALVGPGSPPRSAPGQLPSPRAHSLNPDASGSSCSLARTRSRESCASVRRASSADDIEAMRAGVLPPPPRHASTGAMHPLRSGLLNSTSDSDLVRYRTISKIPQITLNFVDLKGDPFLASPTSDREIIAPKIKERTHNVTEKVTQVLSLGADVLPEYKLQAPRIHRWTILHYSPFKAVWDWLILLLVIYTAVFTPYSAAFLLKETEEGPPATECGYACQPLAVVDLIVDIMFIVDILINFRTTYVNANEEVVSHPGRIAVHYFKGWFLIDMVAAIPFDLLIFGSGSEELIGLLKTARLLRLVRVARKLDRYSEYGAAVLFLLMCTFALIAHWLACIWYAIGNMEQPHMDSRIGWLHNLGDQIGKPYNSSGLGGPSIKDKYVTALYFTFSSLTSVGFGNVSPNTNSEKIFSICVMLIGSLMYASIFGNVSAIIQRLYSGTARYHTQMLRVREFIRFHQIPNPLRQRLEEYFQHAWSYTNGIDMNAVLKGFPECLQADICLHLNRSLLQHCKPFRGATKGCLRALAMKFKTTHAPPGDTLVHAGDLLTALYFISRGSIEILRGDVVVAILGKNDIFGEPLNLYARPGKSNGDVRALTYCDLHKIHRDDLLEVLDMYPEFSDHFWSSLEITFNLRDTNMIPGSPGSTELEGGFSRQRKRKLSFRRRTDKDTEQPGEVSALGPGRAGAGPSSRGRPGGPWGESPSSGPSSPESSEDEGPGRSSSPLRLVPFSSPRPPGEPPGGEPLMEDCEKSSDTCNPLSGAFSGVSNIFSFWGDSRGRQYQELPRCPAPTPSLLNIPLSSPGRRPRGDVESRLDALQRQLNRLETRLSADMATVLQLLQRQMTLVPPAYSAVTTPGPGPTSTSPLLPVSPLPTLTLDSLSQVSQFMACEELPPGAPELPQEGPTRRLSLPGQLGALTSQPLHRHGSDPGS

The nature of series [15]: Cmax of aliskiren hemifumarate following 2 week oral dosing of aliskiren hemifumarate at 100 mg.Kg-1 level studied on day 1 in male Callithrix jacchus. The note with it: marmoset, plasma. The series is classed as ADME, organism-based.
Series [16] is described as follows: Cmaxspec of aliskiren hemifumarate following 2 week oral dosing of aliskiren hemifumarate at 10 mg.Kg-1 level studied on day 1 in male Callithrix jacchus. To be noted: marmoset, in vivo, 336 h. The series is classed as ADME, organism-based, Plasma.
Series [17] in a line: Cmaxspec of aliskiren hemifumarate following 2 week oral dosing of aliskiren hemifumarate at 10 mg.Kg-1 level studied on […] in male Callithrix jacchus. The format is ADME, organism-based, Plasma. The note with it: marmoset, in vivo, 336 h.
Series [18] can be described thus: Effect of 4 week oral dietary dosing of aliskiren hemifumarate at 2000 mg.Kg-1 level on ovarian follicular atresia in female mouse. The series is classed as toxicity, organism-based, CB6F1-TGrasH2, Ovarian follicle. The note with it: in vivo, 672 h.
A short description of series [19]: Effect of 4 week oral dietary dosing of aliskiren hemifumarate at 2000 mg.Kg-1 level on density of uterine gland in female mouse. The format is toxicity, organism-based, CB6F1-TGrasH2, Endometrial gland. The note with it: in vivo, 672 h.
The nature of series [20]: Effect of 4 week oral dietary dosing of aliskiren hemifumarate at 1000 mg.Kg-1 level on spermatogenesis in male mouse. The series is classed as toxicity, organism-based, CB6F1-TGrasH2, Testis. The note with it: in vivo, 672 h.
Series [21] is described as follows: AUC/dose (0-96h) of unlabeled aliskiren hemifumarate following intravenous administration of aliskiren hemifumarate at 10 mg.Kg-1 level in rat. The series is classed as ADME, organism-based, Albino HAN:WIST, Plasma. To be noted: in vivo.
Series [22] is described as follows: Cmax/dose of aliskiren hemifumarate following 4 week oral dietary dosing of aliskiren hemifumarate at 2000 mg.Kg-1 level in male mouse. The series is classed as ADME, organism-based, CB6F1-TGrasH2. The note with it: in vivo, 672 h.
Series [23] in a line: AUC (0-24h)/dose of aliskiren hemifumarate following 4 week oral dietary dosing of aliskiren hemifumarate at 1500 mg.Kg-1 level in male mouse. The series is classed as ADME, organism-based, CB6F1-TGrasH2, Plasma. The note with it: in vivo.
Series [24] in a line: AUC (0-24h)/dose of aliskiren hemifumarate following 4 week oral dietary dosing of aliskiren hemifumarate at 2000 mg.Kg-1 level in male mouse. To be noted: in vivo. The format is ADME, organism-based, CB6F1-TGrasH2, Plasma.
Series [25] is described as follows: AUC (0-24h)/dose of aliskiren hemifumarate following 4 week oral dietary dosing of aliskiren hemifumarate at 2000 mg.Kg-1 level in female mouse. The series is classed as ADME, organism-based, CB6F1-TGrasH2, Plasma. To be noted: in vivo.
The nature of series [26]: t1/2 of aliskiren hemifumarate following 2 week oral dosing of aliskiren hemifumarate at 10 mg.Kg-1 level studied on […] in male Callithrix jacchus. The series is classed as ADME, organism-based. To be noted: marmoset, plasma.

CYP2C19, sequence (P33261 whole entry): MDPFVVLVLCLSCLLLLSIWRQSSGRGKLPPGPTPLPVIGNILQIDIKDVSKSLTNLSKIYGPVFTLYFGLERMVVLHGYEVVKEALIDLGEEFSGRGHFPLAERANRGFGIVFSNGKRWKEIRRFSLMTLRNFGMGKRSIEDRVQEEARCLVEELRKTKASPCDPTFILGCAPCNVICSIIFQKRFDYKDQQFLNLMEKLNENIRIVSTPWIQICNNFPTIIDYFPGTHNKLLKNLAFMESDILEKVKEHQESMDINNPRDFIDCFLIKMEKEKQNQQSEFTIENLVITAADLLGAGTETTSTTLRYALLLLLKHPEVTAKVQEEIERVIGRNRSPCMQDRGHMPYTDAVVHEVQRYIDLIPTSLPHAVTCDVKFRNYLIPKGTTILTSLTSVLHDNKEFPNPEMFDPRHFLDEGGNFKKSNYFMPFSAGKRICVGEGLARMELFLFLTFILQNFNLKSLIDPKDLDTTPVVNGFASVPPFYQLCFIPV
Cytochrome P450 2D6, sequence (P10635 whole entry): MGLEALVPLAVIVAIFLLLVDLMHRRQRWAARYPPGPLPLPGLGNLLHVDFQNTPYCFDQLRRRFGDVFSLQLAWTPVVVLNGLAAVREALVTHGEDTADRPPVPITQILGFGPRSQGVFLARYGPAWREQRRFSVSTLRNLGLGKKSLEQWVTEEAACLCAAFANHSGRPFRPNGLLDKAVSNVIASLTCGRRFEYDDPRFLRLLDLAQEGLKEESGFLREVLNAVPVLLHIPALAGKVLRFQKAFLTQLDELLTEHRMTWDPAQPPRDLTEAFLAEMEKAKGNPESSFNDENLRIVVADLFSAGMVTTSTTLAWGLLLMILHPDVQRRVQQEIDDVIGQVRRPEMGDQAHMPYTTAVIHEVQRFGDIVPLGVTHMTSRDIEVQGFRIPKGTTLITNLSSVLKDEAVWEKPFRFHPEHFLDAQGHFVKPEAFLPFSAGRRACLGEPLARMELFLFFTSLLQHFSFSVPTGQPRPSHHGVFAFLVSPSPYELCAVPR

As to `COCCCOc1cc(C[C@@H](C[C@H](N)[C@@H](O)C[C@H](C(=O)NCC(C)(C)C(N)=O)C(C)C)C(C)C)ccc1OC`, the inhibition at 200 µM is -6.4% in series [1], -12.4% in series [2], 10.5% in series [3] and -15.4% in [4].

On to `COCCCOc1cc(C[C@@H](C[C@H](N)[C@@H](O)C[C@H](C(=O)NCC([14CH3])([14CH3])C(N)=O)C(C)C)C(C)C)ccc1OC.O=C(O)/C=C/C(=O)O`, for which the Radiolabel recovery in series [5] was determined as 0.57%; in [6] it was 90.89%; in series [7], 4.5%; in [9], 0.16%; in [10] it was 58.6%; in series [11] it was 0.17%. In addition, the Radiolabel recovery entry in series [13] is recorded as “OUTCOME = Observed, VALUE = Highest radioactivity concentration was observed”. Moreover, the AUC (usually concentration integrated over time) in series [8] was determined as 5.01 µM·h. Besides, the CL in [12] was 74.4 µL·min/nmol.

`COCCCOc1cc(C[C@@H](C[C@H](N)[C@@H](O)C[C@H](C(=O)NCC(C)(C)C(N)=O)C(C)C)C(C)C)ccc1OC.COCCCOc1cc(C[C@@H](C[C@H](N)[C@@H](O)C[C@H](C(=O)NCC(C)(C)C(N)=O)C(C)C)C(C)C)ccc1OC.O=C(O)/C=C/C(=O)O` [ALISKIREN FUMARATE]: the inhibition at 10 µM in series [14] came out at 1.4%. The Cmax (in general, the highest concentration seen after dosing) in series [15] was 7200 ng/mL. For the same molecule, the Cmax normalised was 0.396 (ug/ml)/(mg/kg) in [16], 0.577 (ug/ml)/(mg/kg) in [17] and 0.22 (ng/mL)/(mg/kg/day) in series [22]. Also, the “Change in ovarian follicular atresia” value in [18] was “OUTCOME = Increased. No animals died during the study”. For the same molecule, the “Change in density of uterine gland” value in [19] was “OUTCOME = Decreased. No animals died during the study”. The Change in spermatogenesis result in series [20] was “OUTCOME = No abnormalities. No animals died during the study”. In addition, the AUC normalised is 1.26 (umol.h/L)/(mg/kg) in [21], 2.76 ((ng/mL).hours)/(mg/kg/day) in series [23], 3.86 ((ng/mL).hours)/(mg/kg/day) in series [24] and 5.88 ((ng/mL).hours)/(mg/kg/day) in [25]. Also, the half-life (usually the time in which the quantity being followed falls by half) in series [26] was 5.63 h.
